# According to patent US20250340569A1, “INHIBITORS OF KIF18A AND USES THEREOF” (Insilico Medicine IP Limited, priority 2023, published 2025):
# Tested on: OVCAR-3
# Assay: OVCAR3 CTG assay
# Type: cell-based
# Conditions: CellTiter-Glo, 6 days incubation
# Source text: Example B2: OVCAR3 CTG Assay
# • a) Preparation of complete medium: Added FBS and appropriate additives according to the information sheet provided by the vendor. Mix gently. • b) Checked the cell name and complete medium and passage number marked on the flask. For adherent cell lines, refer to c to k. For suspension cell lines, refer to g to k. • c) Removed and discarded culture medium using a vacuum pump. • d) Briefly rinsed the cell layer with 0.25% (w/v) Trypsin-0.038% (w/v) EDTA solution to remove all traces of serum that contains trypsin inhibitor. • e) Added 3.0 ml of Trypsin-EDTA solution to flask and observed cells under an inverted microscope until cell layer is dispersed. • f) Added 9.0 ml of complete growth medium and aspirated cells by gently pipetting. • g) Transfered the cell suspension to a centrifuge tube and centrifuged at 1000 rpm for 4 minutes. • h) Discarded the supernatant using a vacuum pump. • i) Added appropriate volume of complete medium. Suspended the cell pellet by gently pipetting. • j) Counted the cell numbers with Vi-cell XR and adjusted cells to appropriate density. • k) Added 190 μL of cell suspension to 96-well opaque-walled clear bottom plates according to the planned plate layout and placed the plates in the CO2 incubator overnight.
# 2) Compound Stock Preparation:
# • a) Plate preparation of testing articles:
# The compounds were dissolved in DMSO to prepare 10 mM stock solution. The start working concentration (2 mM) was prepared with DMSO.
# b) Staurosporine Plate Preparation:
# 0.4 mM Staurosporine was prepared in DMSO at working concentration.
# The 20× compound containing medium was prepared according to the plate map. 10 μL of 20× compound containing medium was added into each well of the assay plates. Centrifuged at 1000 rpm for 1 minute. The total dilution was 200-fold.
# 3) Cells were Incubated with the Compounds for 6 Days at 5% CO2, 37° C.
# Assay Measurement for CTG Assay
# 1) Preparation of Reagents
# • a) Thawed the CellTiter-Glo buffer and equilibrated to room temperature prior to use. • b) Equilibrated the lyophilized CellTiter-Glo substrate to room temperature prior to use. • c) Transfered the appropriate volume of CellTiter-Glo buffer into the amber bottle containing CellTiter-Glo substrate to reconstitute the lyophilized enzyme/substrate mixture. This formed the CellTiter-Glo reagent. • d) Mixed by gently vortexing, swirling or by inverting the contents to obtain a homogeneous solution. The CellTiter-Glo substrate went into solution easily in less than one minute.
# • a) Observed the cell morphology under an inverted microscope after corresponding treatment. • b) Equilibrated the plate and its contents to room temperature for approximately 30 minutes. • c) Added 100 μL of CellTiter-Glo reagent to the assay plate by Multidrop Combi instrument. • d) Mixed contents for 10 minutes on an orbital shaker to induce cell lysis. • e) Allowed the plate to incubate at room temperature for 10 minutes to stabilize luminescent signal. • f) Pasted the clear bottom with white back seal and record luminescence with Envision. The settings should be: Luminescence, measurement time 0.1 s.
row,Structure (SMILES),IC50 [nM]
1,Cc1cc2nc(n1)NC1CC(C1)OCC1(C(F)(F)F)CCN(CC1)c1cc(NS(=O)(=O)CCO)ccc1C(=O)N2 [EX54],10 to 100

# Same assay, conditions: Homo sapiens, OVCAR-3, 144 h; CellTiter-Glo, 6 days incubation
row,Structure (SMILES),IC50 [nM]
1,O=C1Nc2cccc(n2)N2CCO[C@@H](COCC3(C(F)(F)F)CCN(CC3)c3cc(NS(=O)(=O)CCO)ncc31)C2 (stereo in doubt) [EX92-B],< 10
2,Cc1cc2nc(n1)N1CCO[C@@H](COCC3(C(F)(F)F)CCN(CC3)c3cc(NS(=O)(=O)CCO)ccc3C(=O)N2)C1 (stereo in doubt) [EX96-B],10 to 100
3,CC12CCN(CC1)c1cc(S(=O)(=O)NC(C)(C)C)ccc1C(=O)Nc1cccc(n1)OCCCOC2 [EX07],10 to 100
4,CC12CCN(CC1)c1cc(S(=O)(=O)NC(C)(C)C)ccc1C(=O)Nc1ccc(=O)n(n1)CCCCOC2 [EX14],10 to 100
5,Cc1cc2nc(n1)NCC(F)(F)COCC1(C)CCN(CC1)c1cc(NS(=O)(=O)CCO)ccc1C(=O)N2 [EX28],10 to 100
6,Cc1cc2nc(n1)NCCCOCC1(C)CCN(CC1)c1nc(NC(C)(C)CO)ccc1C(=O)N2 [EX29],100 to 1000
7,Cc1cc2nc(n1)N(C)CCCOCC1(C(F)(F)F)CCN(CC1)c1cc(S(=O)(=O)NC(C)(C)C)ccc1C(=O)N2 [EX30],10 to 100
8,Cc1cc2nc(n1)NC[C@H](C(F)(F)F)COCC1(C)CCN(CC1)c1cc(NS(=O)(=O)CCO)ccc1C(=O)N2 [EX32-A],10 to 100
9,Cc1cc2nc(n1)NC[C@@H](C(F)(F)F)COCC1(C)CCN(CC1)c1cc(NS(=O)(=O)CCO)ccc1C(=O)N2 [EX32-B],10 to 100
10,CC12CCN(CC1)c1cc(NS(=O)(=O)CCO)ccc1C(=O)Nc1cc(C(F)(F)F)nc(n1)NCCCOC2 [EX39],10 to 100
11,Cc1cc2nc(n1)N(C)CCCOCC1(C3CC3)CCN(CC1)c1cc(NS(=O)(=O)CCO)ccc1C(=O)N2 [EX41],100 to 1000
12,Cc1cc2nc(n1)NCC(C)COCC1(C#N)CCN(CC1)c1cc(NS(=O)(=O)CCO)ccc1C(=O)N2 (centres unmarked) [EX42],10 to 100
13,Cc1cc2nc(n1)NCC1(CC1)COCC1(C(F)(F)F)CCN(CC1)c1cc(NS(=O)(=O)CCO)ccc1C(=O)N2 [EX43],< 10
14,[2H]C([2H])([2H])N1CCCOCC2(C(F)(F)F)CCN(CC2)c2cc(NS(=O)(=O)CCO)ccc2C(=O)Nc2cc(C)nc1n2 [EX44],10 to 100
15,CO[C@H]1CNc2nc(C)cc(n2)NC(=O)c2ccc(NS(=O)(=O)CCO)cc2N2CCC(C(F)(F)F)(CC2)COC1 [EX46-A],10 to 100
16,CO[C@@H]1CNc2nc(C)cc(n2)NC(=O)c2ccc(NS(=O)(=O)CCO)cc2N2CCC(C(F)(F)F)(CC2)COC1 [EX46-B],10 to 100
17,[2H]C([2H])([2H])N1CCCCOCC2(C(F)(F)F)CCN(CC2)c2cc(NS(=O)(=O)CCO)ccc2C(=O)Nc2cc(C)nc1n2 [EX47],1000 to 10000
18,O=C1NCCOCC2(C(F)(F)F)CCN(CC2)c2cc(NS(=O)(=O)CCO)ccc2C(=O)Nc2cccc1n2 [EX49],100 to 1000
19,Cc1cc2nc(n1)NC/C=C\COCC1(C(F)(F)F)CCN(CC1)c1cc(NS(=O)(=O)CCO)ccc1C(=O)N2 [EX51],10 to 100
20,Cc1cc2nc(n1)NC/C=C/COCC1(C(F)(F)F)CCP(=O)(CC1)c1cc(NS(=O)(=O)CCO)ccc1C(=O)N2 [EX52],1000 to 10000
21,Cc1cc2nc(n1)NC1CC(C1)OCC1(C(F)(F)F)CCN(CC1)c1cc(NS(=O)(=O)CCO)ccc1C(=O)N2 [EX53],10 to 100
22,CC1CNc2cccc(n2)NC(=O)c2ccc(NS(=O)(=O)CCO)cc2N2CCC(C(F)(F)F)(CC2)COC1 (centres unmarked) [EX56],10 to 100
23,[2H]C([2H])([2H])N1CCCCCC2(C(F)(F)F)CCN(CC2)c2cc(NS(=O)(=O)CCO)ccc2C(=O)Nc2cccc1n2 [EX60],10 to 100
24,[2H]C([2H])([2H])N1CCCOCC2(C(F)(F)F)CCN(CC2)c2cc(NS(=O)(=O)CCO)ccc2C(=O)Nc2ccc(F)c1n2 [EX61],10 to 100
25,CN1CCCOCC2(C(F)(F)F)CCN(CC2)c2cc(NS(=O)(=O)CCO)ccc2C(=O)Nc2cccc1n2 [EX62],10 to 100
26,[2H]C([2H])([2H])N1CCCCC2(C(F)(F)F)CCN(CC2)c2cc(NS(=O)(=O)CCO)ccc2C(=O)Nc2cccc1n2 [EX63],100 to 1000
27,O=C1Nc2ccc(=O)n(n2)CCCCCCC2(C(F)(F)F)CCN(CC2)c2cc(NS(=O)(=O)CCO)ccc21 [EX64],10 to 100
28,O=C1Nc2ccc(=O)n(n2)CCCCCC2(C(F)(F)F)CCN(CC2)c2cc(NS(=O)(=O)CCO)ccc21 [EX65],100 to 1000

row,Structure (SMILES),IC50 [nM]
1,O=C1Nc2cccc(n2)NC/C=C\COCC2(C(F)(F)F)CCN(CC2)c2cc(NS(=O)(=O)CCO)ccc21 [EX66],10 to 100
2,O=C1Nc2cccc(n2)NCC2(CC2)COCC2(C(F)(F)F)CCN(CC2)c2cc(NS(=O)(=O)CCO)ccc21 [EX68],10 to 100
3,[2H]C([2H])([2H])N1CCCOCC2(C(F)(F)F)CCN(CC2)c2cc(S(=O)(=O)NC(C)(C)C)ccc2C(=O)Nc2cccc1n2 [EX69],10 to 100
4,[2H]C([2H])([2H])N1CCCOCC2(C(F)(F)F)CCN(CC2)c2cc(S(=O)(=O)NCCO)ccc2C(=O)Nc2cccc1n2 [EX70],10 to 100
5,O=C1Nc2cccc(n2)N(C2CC2)CCCOCC2(C(F)(F)F)CCN(CC2)c2cc(NS(=O)(=O)CCO)ccc21 [EX71],10 to 100
6,CN1CCCOCC2(C(F)(F)F)CCN(CC2)c2cc(NS(=O)(=O)CCO)ccc2C(=O)Nc2cncc1n2 [EX75],100 to 1000
7,C[C@H]1CNc2nc(ccc2F)NC(=O)c2ccc(NS(=O)(=O)CCO)cc2N2CCC(C(F)(F)F)(CC2)COC1 [EX76-A],< 10
8,C[C@@H]1CNc2nc(ccc2F)NC(=O)c2ccc(NS(=O)(=O)CCO)cc2N2CCC(C(F)(F)F)(CC2)COC1 [EX76-B],10 to 100
9,C/C1=C/CNc2cccc(n2)NC(=O)c2ccc(NS(=O)(=O)CCO)cc2N2CCC(C(F)(F)F)(CC2)COC1 [EX77],100 to 1000
10,CO[C@@H]1CNc2cccc(n2)NC(=O)c2ccc(NS(=O)(=O)CCO)cc2N2CCC(C(F)(F)F)(CC2)COC1 [EX78-A],10 to 100
11,CO[C@H]1CNc2cccc(n2)NC(=O)c2ccc(NS(=O)(=O)CCO)cc2N2CCC(C(F)(F)F)(CC2)COC1 [EX78-B],< 10
12,C[C@@H]1CCCC2(C(F)(F)F)CCN(CC2)c2cc(NS(=O)(=O)CCO)ccc2C(=O)Nc2cccc(n2)NC1 [EX79-A],10 to 100
13,C[C@H]1CCCC2(C(F)(F)F)CCN(CC2)c2cc(NS(=O)(=O)CCO)ccc2C(=O)Nc2cccc(n2)NC1 [EX79-B],< 10
14,CN1CCC2(C(F)(F)F)CCN(CC2)c2cc(NS(=O)(=O)CCO)ccc2C(=O)Nc2cccc(n2)NCC1=O [EX80],1000 to 10000
15,O=C1Nc2cccc(n2)N2CCO[C@H](COCC3(C(F)(F)F)CCN(CC3)c3cc(NS(=O)(=O)CCO)ccc31)C2 [EX81-B],10 to 100
16,O=C1Nc2cccc(n2)NCCC/C=C/C2(C(F)(F)F)CCN(CC2)c2cc(NS(=O)(=O)CCO)ccc21 [EX83],10 to 100
17,C[C@H]1COCC2(C(F)(F)F)CCN(CC2)c2cc(NS(=O)(=O)CCO)ccc2C(=O)Nc2cccc(n2)CO1 [EX84-A],10 to 100
18,C[C@@H]1COCC2(C(F)(F)F)CCN(CC2)c2cc(NS(=O)(=O)CCO)ccc2C(=O)Nc2cccc(n2)CO1 [EX84-B],10 to 100
19,C[C@@H]1C/C=C/C2(C(F)(F)F)CCN(CC2)c2cc(NS(=O)(=O)CCO)ccc2C(=O)Nc2cccc(n2)NC1 [EX85-A],10 to 100
20,C[C@H]1C/C=C/C2(C(F)(F)F)CCN(CC2)c2cc(NS(=O)(=O)CCO)ccc2C(=O)Nc2cccc(n2)NC1 [EX85-B],< 10
21,CN1CCCOCC2(C(F)(F)F)CCN(CC2)c2cc(NS(=O)(=O)CCO)cnc2C(=O)Nc2cccc1n2 [EX86],10 to 100
22,CN1CCCOCC2(C(F)(F)F)CCN(CC2)c2cc(NS(=O)(=O)CCO)ccc2C(=O)Nc2nccc1n2 [EX87],1000 to 10000
23,CCS(=O)(=O)Nc1ccc2c(c1)N1CCC(C(F)(F)F)(CC1)COC[C@@H](C)CNc1cccc(n1)NC2=O [EX88-A],10 to 100
24,CCS(=O)(=O)Nc1ccc2c(c1)N1CCC(C(F)(F)F)(CC1)COC[C@H](C)CNc1cccc(n1)NC2=O [EX88-B],< 10
25,CN1CCCCCC2(C(F)(F)F)CCN(CC2)c2cc(NS(=O)(=O)CCO)ncc2C(=O)Nc2cccc1n2 [EX89],10 to 100
26,CN1CCCCCC2(C(F)(F)F)CCN(CC2)c2cc(NS(=O)(=O)CCO)ccc2C(=O)Nc2ccnc1n2 [EX90],10 to 100
27,CN1CCC/C=C/C2(C(F)(F)F)CCN(CC2)c2cc(NS(=O)(=O)CCO)ccc2C(=O)Nc2ccnc1n2 [EX91],10 to 100
